Laboratory results reported in US20260008801A1, “BIO-BASED SURFACTANTS DERIVED FROM CARBOHYDRATES” (COÖPERATIE KONINKLIJKE COSUN U.A., priority 2022, published 2026).
Where two headings read alike, the source gives them in different places.

How the values were obtained:
Format in all cases: physicochemical
[1] = Foaming abilities, 1% compound solutions shaken by hand; parameters: key to FOAM: −: no foam formation; +: low foam formation; ++: moderate foam formation; +++: strong foam formation
Procedure: Foaming abilities were evaluated at room temperature by shaking 1% compound solutions (2 ml) of pH 3, 7, and 12 by hand for 10 s. The pH of each solution was assessed with a pH meter at room temperature. […] The foam heights at the initial time were compared to one another after which the foaming abilities were classified according to no foam formation (−), low foam formation (+), moderate foam formation (++), and strong foam formation (+++).

[2] = Solubility in media other than water (methanol, ethyl acetate, oils, 3:1 EtOH/H2O); conditions: for Solubility in 3:1 EtOH/H2O: 3:1 ethanol water ratio; for SOLUBILITY (H2O): medium named in the cell instead of water: Table E1, cell names the medium in which the compound is soluble
[3] = Solubility in water (excess of compound in 4 ml demi water); conditions: for Solubility: Table E5.2, water; for Solubility (%): Table E8
Procedure: Solubility is preferably solubility in aqueous solution, more preferably solubility in water, most preferably solubility in demineralised water. A skilled person knows how to assess such solubility.
Solubility in water was determined by preparing mixtures of an excess of compound dispersed in 4 ml demi water using a vortex at maximum speed for 1 min. […] 1 ml of the mixture was concentrated in vacuo to yield a solid. The mass of the solid was determined in mg to calculate the solubility in percentage by dividing by ten.

[4] = Surface tension measurements, Wilhelmy plate (surface tension, CMC)
Procedure: Surface tension measurements were performed with a Biolin Scientific Sigma701 automatic tension meter equipped with a Wilhelmy plate made of platinum (±0.5 mN/m). […] The number of experimental points is related to the compound's/surfactant's solubility and available quantity. All compound/surfactant solutions were allowed to stand 12 h before being measured. The platinum plate was thoroughly cleaned with demi water and flame-dried before each measurement. The CMC of each compound/surfactant was determined at the minimum of a breakpoint of a conventional plot of surface tension versus compound/surfactant concentration. DCMC was obtained by acquiring the surface tension at the CMC. The pC20 value was determined by taking the minus log of the concentration compound/surfactant at a surface tension of 52 mN/m.

[5] = Foaming power and stability, Ultra-Turrax, 0.4% aq. surfactant; conditions: for Foamability (mL) after (min) 1 / Foamability (mL) after (min) 5 / Foamability (mL) after (min) 10: Table E5.2; for Foamability (mL) after (min) 1: foam volume after 1 min; for Foamability (mL) after (min) 5: foam volume after 5 min; for Foamability (mL) after (min) 10: foam volume after 10 min; for Foamability 1 min / Foamability 5 min / Foamability 30 min: Table E8; for Foamability 1 min: after 1 min; for Foamability 5 min: after 5 min; for Foamability 30 min: after 30 min
Procedure: Foaming power was also tested at room temperature with 5 mL of 0.4% aq. surfactant (20 mg) solution in a 50 mL measuring cylinder. After performing the Ultra-Turrax (a registered trademark for a high-performance dispersing instrument) for 20 seconds (8000 rpm), the initial height of the foam was measured for foam height. (volume in mL). Every time step of, 1, 3, 5, 10, 30, 60 minutes was noted. In addition, after 24 hours the stability was checked. Particularly, foaming power and stability of the surfactants were performed using an IKA Ultra-Turrax T25 with an 18 G dispersing element. At room temperature, an aqueous solution of 5 mL 0.4% surfactant in a 50 mL measuring cylinder (2.20 cm diameter) was mixed with the Ultra-Turrax for 20 seconds at 8000 rpm. The foam height (volume in mL) was denoted for 0, 1, 3, 5, 10, 30, 60 min and 24 hours. In addition, after 24 hours the stability was checked.

[6] = Table E3, N-alkylated compounds
[7] = Table E4, room temperature, pH 7
[8] = Table E6, N-oxide compounds, in Salt form

CCCCCCN(C)C(=O)[C@H](O)[C@@H](O)[C@@H](O)CO [Compound 18, N-methyl-N-hexyl-L-arabinonamide]
FOAM ([1]; Table E3): −
solubility in methanol, in words [2]: well soluble
solubility in water, in words [3]: well soluble
SOLUBILITY (H2O) [3, 6]: Soluble

CCCCCCCCCCCCN(C)C(=O)[C@H](O)[C@@H](O)[C@@H](O)[C@H](O)C(=O)O [Compound 22]
foaming behaviour / foam creation, in words [1]: good foaming behaviour
FOAM ([1]; Table E3): ++
solubility in methanol, in words [2]: well soluble
solubility in water, in words [3]: well soluble
SOLUBILITY (H2O) [3, 6]: Soluble

CCCCCCCCCCCCN(C)C(=O)[C@H](O)[C@@H](O)[C@@H](O)CO [Compound 19, N-methyl-N-dodecyl-L-arabinonamide]
FOAM ([1]; Table E3): ++
solubility in ethyl acetate, in words ([2]; ethyl acetate): well soluble
solubility in methanol, in words [2]: well soluble
solubility in water, in words [3]: well soluble
SOLUBILITY (H2O) [3, 6]: Soluble

CCCCCCCCN(C)C(=O)[C@H](O)[C@@H](O)[C@@H](O)[C@H](O)C(=O)O [Compound 20]
foaming behaviour / foam creation, in words [1]: good foaming behaviour
FOAM ([1]; Table E3): ++
solubility in methanol, in words [2]: well soluble
solubility in water, in words [3]: well soluble
SOLUBILITY (H2O) [3, 6]: Soluble

CCCCCCCCN(C)C(=O)[C@H](O)[C@@H](O)[C@@H](O)CO [Compound 17, N-methyl-N-octyl-L-arabinonamide]
foaming behaviour / foam creation, in words [1]: good foaming behaviour
FOAM ([1]; Table E3): ++
solubility in methanol, in words [2]: well soluble
solubility in water, in words [3]: well soluble
SOLUBILITY (H2O) [3, 6]: Soluble

CCCCCCCCCCCCN(C)C[C@H](O)[C@@H](O)[C@@H](O)CO [Compound 25, N-methyl-N-dodecyl-L-arabinamine]
FOAM ([1]; Table E4, pH > 7): ++
CMC (%) ([4]; Table E4): 0.1%
SURFACE TENSION [4, 7]: 26.2 mN/m
CMC (%) ([4]; Table E5.2): 0.1%
Surface tension (nM/m) ([4]; Table E5.2): 26.2 mN/m
SOLUBILITY (H2O) ([3]; Table E4): 0.06%
Solubility [3]: 0.06%
Foamability (mL) after (min) 1 [5]: 5 mL
Foamability (mL) after (min) 5 [5]: 5 mL
Foamability (mL) after (min) 10 [5]: 4 mL

CCCCCCCC[N+](C)([O-])C[C@H](O)[C@@H](O)[C@@H](O)[C@H](O)C(=O)O (stereo partly drawn) [Compound 42, N-methyl-N-octyl-D-galacturonic acid amine oxide]
FOAM ([1]; Table E6, in Salt form): +++
CMC (%) ([4]; Table E6, in Salt form): 0.65%
SURFACE TENSION ([4]; Table E6, in Salt form): 42.89 mN/m
CMC (%) ([4]; Table E8): 0.65%
Surface tension (nM/m) ([4]; Table E8): 42.89 mN/m
SOLUBILITY (H2O) [3, 8]: 10%
Solubility (%) [3]: 10%
Foamability 1 min [5]: 6 mL
Foamability 5 min [5]: 6 mL
Foamability 30 min [5]: 2 mL

CCCCCC[N+](C)([O-])C[C@H](O)[C@@H](O)[C@@H](O)[C@H](O)C(=O)O (stereo partly drawn) [Compound 41, N-methyl-N-hexyl-D-galacturonic acid amine oxide]
FOAM ([1]; Table E6, in Salt form): −
CMC (%) ([4]; Table E6, in Salt form): 2.58%
SURFACE TENSION ([4]; Table E6, in Salt form): 37.727 mN/m
CMC (%) ([4]; Table E8): 2.60%
Surface tension (nM/m) ([4]; Table E8): 42.90 mN/m
SOLUBILITY (H2O) [3, 8]: 17%
Solubility (%) [3]: 17%
Foamability 1 min [5]: 0.5 mL
Foamability 5 min [5]: 0 mL
Foamability 30 min [5]: 0 mL

CCCCCCCCNC(=O)[C@H](O)[C@@H](O)[C@@H](O)CO [Compound 03, 1-(N-octyl)-L-arabinonamide]
FOAM ([1]; Table E1): −
Solubility in 3:1 EtOH/H2O [2]: soluble
SOLUBILITY (H2O): medium named in the cell instead of water ([2]; in 3:1 ethanol/water): 3:1 EtOH/H2O &
SOLUBILITY (H2O): medium named in the cell instead of water ([2]; in oil): in oil
solubility in diverse oils, in words [2]: soluble
solubility in water, in words [3]: poorly soluble

CCCCCCCCN(C)C[C@H](O)[C@@H](O)[C@@H](O)CO [Compound 24, N-methyl-N-octyl-L-arabinamine]
FOAM ([1]; Table E4, pH > 7): +
CMC (%) ([4]; Table E4): 0.25%
SURFACE TENSION [4, 7]: 28.7 mN/m
CMC (%) ([4]; Table E5.2): 0.25%
Surface tension (nM/m) ([4]; Table E5.2): 28.7 mN/m
SOLUBILITY (H2O) ([3]; Table E4): 0.9%
Solubility [3]: 0.9%
solubility, earlier measurements ([3]; earlier measurements, initially found): 0.25%
Foamability (mL) after (min) 1 [5]: 5 mL
Foamability (mL) after (min) 5 [5]: 4.5 mL
Foamability (mL) after (min) 10 [5]: 4 mL

CCCCCCCCCCNC(=O)[C@H](O)[C@@H](O)[C@@H](O)CO [Compound 04, 1-(N-Decyl)-L-arabinonamide]
FOAM ([1]; Table E1): −
SOLUBILITY (H2O): medium named in the cell instead of water [2]: In oil
solubility in diverse oils, in words [2]: soluble
solubility in water, in words [3]: poorly soluble

CCCCCCCCCC[N+](C)([O-])C[C@H](O)[C@@H](O)[C@@H](O)[C@H](O)C(=O)O (stereo partly shown) [Compound 42b]
FOAM ([1]; Table E6, in Salt form): +++
CMC (%) ([4]; Table E6, in Salt form): 0.08%
SURFACE TENSION ([4]; Table E6, in Salt form): 25.17 mN/m
CMC (%) ([4]; Table E8): 0.08%
Surface tension (nM/m) ([4]; Table E8): 25.17 mN/m
SOLUBILITY (H2O) [3, 8]: 8%
Solubility (%) [3]: 8%
Foamability 1 min [5]: 6 mL
Foamability 5 min [5]: 6 mL
Foamability 30 min [5]: 5 mL

CCCCCCCCCCCCN(C)C[C@H](O)[C@@H](O)[C@@H](O)[C@H](O)C(=O)O [Compound 32, N-methyl-N-dodecyl-D-galacturonic acid amine]
FOAM ([1]; Table E5, pH not given): +++
stability in foam ([1]; whole pH range): enormous stability
SURFACE TENSION [4]: 33.9 mN/m
CMC (%) ([4]; Table E5): 0.1%
SURFACE TENSION ([4]; Table E5, room temperature, pH 7): 33.9 mN/m
CMC (%) ([4]; Table E5.2): 0.1%
Surface tension (nM/m) ([4]; Table E5.2): 33.9 mN/m
critical micelle concentration (CMC) ([4]; running text b302): 0.01%
solubility in H2O [3]: 1%
SOLUBILITY (H2O) ([3]; Table E5): 1%
Solubility [3]: 1%
Foamability (mL) after (min) 1 [5]: 4.5 mL
Foamability (mL) after (min) 5 [5]: 5 mL
Foamability (mL) after (min) 10 [5]: 3 mL

CCCCCCNC[C@H](O)[C@@H](O)[C@@H](O)[C@H](O)C(=O)O [Compound 37, N-hexyl-D-galacturonic acid amine, reference compound]
FOAM ([1]; Table E5, pH not given): −
Solubility in 3:1 EtOH/H2O [2]: (Poorly in 3:1
SOLUBILITY (H2O) ([3]; Table E5): 14%
Solubility [3]: 14%
